Results published in the supplement of paper PMC8882468.

How the values were obtained:
Experiment in all cases: CTG-3D luminescence at 96 h relative to day-0 seeding control (ratio to day 0); higher = more growth / less cytotoxicity; PDxO 3D drug screen, 96 h, CTG-3D normalised to day-0 seeding control.
HCI-003.E2 = tested on: HCI-003.E2 (organoid from an ER-positive breast cancer xenograft)
HCI-005.E2 = tested on: HCI-005.E2 (organoid from a breast cancer xenograft with a HER2-positive history)
HCI-011.E2 = tested on: HCI-011.E2 (organoid from an ER-positive breast cancer xenograft)
HCI-016 = tested on: HCI-016 (organoid from a triple-negative breast cancer xenograft)
HCI-019 = tested on: HCI-019 (organoid from a triple-negative breast cancer xenograft)
HCI-025 = tested on: HCI-025 (organoid from a breast cancer xenograft)

CS(=O)(=O)c1ccc(C(=O)Nc2ccc(Cl)c(-c3ccccn3)c2)c(Cl)c1 [vismodegib]
CTG-3D luminescence at 96 h
Conditions	12.5 pM	0.00025 µM	0.005 µM	0.1 µM	1 µM	10 µM	100 µM	625 fM
HCI-003.E2	1.92	2.03	1.93	2.17	2.08	1.96	0.299	1.94
HCI-005.E2	1.47	1.38	1.47	1.57	1.45	1.3	0.318	1.47
HCI-011.E2	1.44	1.41	1.58	1.72	1.61	1.85	1.13	1.67

CTG-3D luminescence at 96 h
Conditions	12.5 pM	0.00025 µM	0.005 µM	0.1 µM	1 µM	10 µM	100 µM	625 fM
HCI-011.E2, days in culture: 74	2.31	1.93	1.98	2.31	2.12	3.48	1.49	2.36
HCI-016, days in culture: 153	3.24	1.78	2.91	1.54	2.95	1.79	0.626	2.46
HCI-016, days in culture: 172	2.24	1.87	1.95	1.87	2.13	1.47	0.75	2.02
HCI-016, days in culture: 190	2.13	1.28	1.74	1.58	1.72	1.66	0.376	1.7
HCI-016, days in culture: 199	2.04	1.97	2.17	2.07	2.19	2.01	0.655	2.15
HCI-019, days in culture: 110	1.59	1.68	1.23	2.46	1.99	2.18	1.03	2.06
HCI-019, days in culture: 131	2.17	2.54	3.59	3.93	2.82	2.53	1.56	3.4
HCI-019, days in culture: 152	3.1	2.87	2.59	1.83	2.08	1.82	0.857	1.86
HCI-025, days in culture: 172	3.09	1.78	3.88	2.18	2.97	1.37	0.368	2.37
HCI-025, days in culture: 209	1.85	2.63	2.69	1.56	2.47	1.4	0.0933	1.57
HCI-025, days in culture: 218	1.48	1.67	2.01	1.69	1.56	1.88	-0.104	1.87
